# Assay results reported in ChEMBL document CHEMBL1201862, “PubChem BioAssay data set” (2004).
# Active and inactive are the calls of the source.
# Legend:
# [1] = target: T1, Corticotropin-releasing factor receptor 2/Corticotropin-releasing factor-binding protein (Homo sapiens, UniProt P24387+Q13324); experiment: activators of CRF receptor 2 with binding protein – uHTS hits, confirmation (AID 602473); type: functional; conditions: read-out: EC50_Mean
# T1 sequence (Q13324 whole entry): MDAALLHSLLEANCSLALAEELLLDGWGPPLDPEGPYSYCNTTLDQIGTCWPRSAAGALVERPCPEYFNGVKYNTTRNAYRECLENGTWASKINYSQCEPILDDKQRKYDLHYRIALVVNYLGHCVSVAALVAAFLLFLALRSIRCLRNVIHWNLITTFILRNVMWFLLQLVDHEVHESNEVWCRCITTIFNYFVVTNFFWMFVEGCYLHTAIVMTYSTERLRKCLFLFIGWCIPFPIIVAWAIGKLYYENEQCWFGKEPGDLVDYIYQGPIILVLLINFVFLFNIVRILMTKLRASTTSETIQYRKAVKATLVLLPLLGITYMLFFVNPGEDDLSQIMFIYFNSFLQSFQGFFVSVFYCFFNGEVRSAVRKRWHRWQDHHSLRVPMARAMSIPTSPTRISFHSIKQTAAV
# T1 sequence (P24387 whole entry): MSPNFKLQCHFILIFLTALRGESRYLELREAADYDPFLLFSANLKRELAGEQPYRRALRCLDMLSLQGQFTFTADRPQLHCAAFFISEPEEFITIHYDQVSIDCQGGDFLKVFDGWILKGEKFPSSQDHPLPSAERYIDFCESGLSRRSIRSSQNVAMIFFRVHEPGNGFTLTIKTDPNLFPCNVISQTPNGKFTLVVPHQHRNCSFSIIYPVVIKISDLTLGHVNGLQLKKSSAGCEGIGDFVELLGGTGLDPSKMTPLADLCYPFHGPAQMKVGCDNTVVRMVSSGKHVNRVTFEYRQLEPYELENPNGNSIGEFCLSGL
# [2] = target: T1, Corticotropin-releasing factor receptor 2/Corticotropin-releasing factor-binding protein; experiment: Dose Response confirmation of uHTS hits for small molecule antagonists of the CRF-binding protein and CRF-R2 receptor complex.; type: functional; conditions: read-out: IC50_Mean
# Beta-galactosidase = Beta-galactosidase (Escherichia coli, UniProt Q8VNN2); experiment: Dose response counterscreen for EBI2 assay utilizing the enzyme, b-galactosidase.; type: functional
# SUMO-activating enzyme = SUMO-activating enzyme (Homo sapiens, UniProt Q9UBT2); experiment: SUMOylation inhibitor hit validation, confirmation, SUMOylation inhibitor project, biochemical, AlphaScreen (AID 2018); type: functional
# cells [3] = conditions: A549
# [4] = target: T2, Sentrin-specific protease 1 (Homo sapiens, UniProt Q9P0U3); experiment: potency of human SENP1 inhibitors, dose response, biochemical, kinetic FRET (AID 651697); type: functional; conditions: read-out: IC50_Mean
# Fatty acid synthase [5] = target: T3, Fatty acid synthase (Homo sapiens, UniProt P49327); experiment: FAS thioesterase domain inhibitors, dose response, biochemical, endpoint fluorescence intensity, uHTS hits (AID 624327); type: functional;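 also: fluorescence from hydrolysis of an O-methyl fluorescein acyl ester substrate by the enzyme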
# [6] = target: T2, Sentrin-specific protease 1; experiment: Dose response confirmation of small molecule inhibitors of the catalytic domain of the SUMO protease, SENP1 in a FRET assay.; type: functional; conditions: read-out: IC50_Mean
# Fatty acid synthase [7] = target: T3, Fatty acid synthase; experiment: FAS thioesterase domain inhibitors, dose response, biochemical, kinetic fluorescence intensity (AID 624326); type: functional;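 also: rate of fluorescence rise from hydrolysis of a fluorogenic O-methyl fluorescein ester substrate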
# [8] = HepG2 cell cytotoxicity, dose response, cytotoxicity control, ATP luminescence, cherry-pick, activator set 2 (AID 1053143); type: functional, cell-based
# Beta-lactamase [9] = target: Beta-lactamase (Salmonella choleraesuis (strain SC-B67), UniProt Q5J463)
# Beta-lactamase [10] = target: Beta-lactamase (Pseudomonas aeruginosa, UniProt Q79MP6);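 also: biochemical dose-response test of metallo-beta-lactamase enzyme inhibition, read out by epi-absorbance; purified recombinant IMP-1 metallo-beta-lactamase with nitrocefin as substrate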
# Mu-type opioid receptor = Mu-type opioid receptor (Homo sapiens, UniProt P35372); type: functional, cell-based;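 also: U2OS cells with beta-arrestin recruitment to OPRM1 by beta-gal complementation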
# [11] = target: 5-hydroxytryptamine receptor 2A (Mus musculus, UniProt P35363); type: functional, cell-based;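 also: CHO-K1 cells with tagged receptor and beta-arrestin; agonist potency measured as compound-induced activation of the receptor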
# [12] = target: ADP-ribosylation factor GTPase-activating protein 1 (Rattus norvegicus, UniProt Q62848); experiment: Fluorescence polarization-based biochemical high throughput dose response screening assay to identify inhibitors of ADP-ribosylation factor GTPase activating protein 1 (ARFGAP1).; type: functional
# [13] = A549 cell cytotoxicity, dose response, cytotoxicity control, CellTiter-Glo luminescence, dry powder, set 3 (AID 743146); type: functional, cell-based
# [14] = HEK293 cell cytotoxicity, dose response, cytotoxicity control, ATP luminescence, dry powder, Set6 (AID 743142); type: functional, cell-based
# [15] = Counterscreen for antagonists of the human trace amine associated receptor 1 (hTAAR1): Fluorescence-based cell-based high throughput dose response assay to identify nonselective Ga16 antagonists.; type: functional
# [16] = Counterscreen for […] of the human trace amine associated receptor 1 (TAAR1): Fluorescence-based cell-based high throughput dose response assay to identify nonselective Ga16 agonists.; type: functional
# [17] = target: T4, Trace amine-associated receptor 1 (Homo sapiens, UniProt Q96RJ0); experiment: Counterscreen for antagonists of the human trace amine associated receptor 1 (hTAAR1): Fluorescence-based cell-based high throughput dose response assay to identify TAAR1 Agonists.; type: functional
# T4 sequence (Q96RJ0 whole entry): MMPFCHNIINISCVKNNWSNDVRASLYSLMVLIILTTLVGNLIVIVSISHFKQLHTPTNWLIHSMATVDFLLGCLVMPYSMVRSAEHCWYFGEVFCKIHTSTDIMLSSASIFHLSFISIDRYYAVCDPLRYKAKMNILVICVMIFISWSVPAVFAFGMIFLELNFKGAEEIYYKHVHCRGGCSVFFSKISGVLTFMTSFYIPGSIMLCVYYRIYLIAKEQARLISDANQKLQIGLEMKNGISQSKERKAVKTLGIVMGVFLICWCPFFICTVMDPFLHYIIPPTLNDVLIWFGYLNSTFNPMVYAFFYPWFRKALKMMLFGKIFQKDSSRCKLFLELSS
# [18] = target: T4, Trace amine-associated receptor 1; experiment: Fluorescence-based cell-based high throughput dose response assay to identify antagonists of the human trace amine associated receptor 1 (TAAR1).; type: functional
# [19] = target: Metabotropic glutamate receptor 3 (Rattus norvegicus, UniProt P31422); experiment: mGlu3 NAM potency via calcium readout, dose response, mGlu3 NAM project, TREx293 cells, Galpha15, calcium flux (AID 651840); type: functional
# [20] = target: T5, Sentrin-specific protease 8 (Homo sapiens, UniProt Q96LD8); type: functional
# T5 sequence (Q96LD8 whole entry): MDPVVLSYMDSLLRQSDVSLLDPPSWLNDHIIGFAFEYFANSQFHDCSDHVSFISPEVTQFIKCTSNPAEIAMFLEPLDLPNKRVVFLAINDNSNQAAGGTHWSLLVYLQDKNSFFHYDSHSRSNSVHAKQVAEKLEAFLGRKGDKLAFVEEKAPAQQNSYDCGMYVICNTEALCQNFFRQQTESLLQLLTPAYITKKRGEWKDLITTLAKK
# [21] = target: T6, Mannose-6-phosphate isomerase (Homo sapiens, UniProt P34949); experiment: human PMI inhibitors, high substrate, primary screen, biochemical, fluorescence intensity, high mannose 6-phosphate (AID 1220)
# T6 sequence (P34949 whole entry): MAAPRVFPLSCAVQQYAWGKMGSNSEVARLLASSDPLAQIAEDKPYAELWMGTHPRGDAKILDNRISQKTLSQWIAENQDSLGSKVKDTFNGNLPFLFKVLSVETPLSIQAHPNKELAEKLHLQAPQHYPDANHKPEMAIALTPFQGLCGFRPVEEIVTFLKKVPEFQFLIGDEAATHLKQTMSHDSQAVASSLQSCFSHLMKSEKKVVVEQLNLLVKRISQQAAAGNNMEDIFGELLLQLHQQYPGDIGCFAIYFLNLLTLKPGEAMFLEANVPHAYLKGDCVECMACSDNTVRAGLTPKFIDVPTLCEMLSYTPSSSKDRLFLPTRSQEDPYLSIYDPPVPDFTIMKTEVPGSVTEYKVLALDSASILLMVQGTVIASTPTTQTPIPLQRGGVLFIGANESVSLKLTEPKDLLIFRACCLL
# [22] = target: T5, Sentrin-specific protease 8; type: functional; remark: listed apart in the source
# [23] = A Cell-Based Confirmatory Screen for Compounds that Inhibit VEEV, TC-83 (8).; type: functional
# [24] = target: T7, Low molecular weight phosphotyrosine protein phosphatase (Homo sapiens, UniProt P24666); type: functional; conditions: read-out: IC50_Mean
# T7 sequence (P24666 whole entry): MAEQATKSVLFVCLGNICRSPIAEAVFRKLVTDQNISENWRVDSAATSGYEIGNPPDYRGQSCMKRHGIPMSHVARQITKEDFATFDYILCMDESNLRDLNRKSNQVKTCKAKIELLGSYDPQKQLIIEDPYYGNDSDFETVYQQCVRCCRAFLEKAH
# [25] = target: T8, Heat shock factor protein 1 (Mus musculus, UniProt P38532); experiment: HSF1 potentiators in luciferase reporter cells, confirmation, cell-based, NIH3T3, luminescence, dose retest (AID 435004); type: functional;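 also: stress induced by proteasome inhibitor MG132 added 30 min after compound; luciferase reporter driven by HSF1 response element in NIH3T3 cells; actives raise luminescence as potentiators of the MG132 stress response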
# T8 sequence (P38532 whole entry): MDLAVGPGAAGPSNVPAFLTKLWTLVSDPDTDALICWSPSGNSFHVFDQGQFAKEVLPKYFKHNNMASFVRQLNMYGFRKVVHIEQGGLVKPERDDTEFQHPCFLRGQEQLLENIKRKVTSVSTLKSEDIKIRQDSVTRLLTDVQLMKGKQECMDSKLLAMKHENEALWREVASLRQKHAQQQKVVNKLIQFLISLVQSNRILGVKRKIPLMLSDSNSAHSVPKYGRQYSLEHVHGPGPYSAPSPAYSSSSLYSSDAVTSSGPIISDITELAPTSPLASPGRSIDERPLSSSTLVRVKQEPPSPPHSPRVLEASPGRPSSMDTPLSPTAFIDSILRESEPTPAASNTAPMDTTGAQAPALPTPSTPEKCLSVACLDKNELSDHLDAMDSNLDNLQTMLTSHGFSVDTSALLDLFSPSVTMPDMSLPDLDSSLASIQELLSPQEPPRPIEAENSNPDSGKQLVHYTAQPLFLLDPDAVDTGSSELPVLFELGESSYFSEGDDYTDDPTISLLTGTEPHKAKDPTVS
# [26] = target: T7, Low molecular weight phosphotyrosine protein phosphatase; type: functional; conditions: read-out: IC50_Mean; remark: listed apart in the source
# Mucolipin-3 = Mucolipin-3 (Homo sapiens, UniProt Q8TDD5); experiment: Dose response cell-based high-throughput screening assay for agonists of the transient receptor potential channel ML3 (TRPML3). [Related pubchem assays: 1526, 1424, 1448 ]; type: functional
# Ion channel NompC = Ion channel NompC (Danio rerio, UniProt Q7T1G6); experiment: Fluorescence counterscreen assay for TRPML3 agonists: dose response cell-based high-throughput screening assay to identify agonists of the transient receptor potential channel N1 (TRPN1). [Related pubchem assays: 1526, 1424, 1448 ]; type: functional
# Vero = experiment: Vero cell toxicity, dose response, cytotoxicity control, plate reader, cherry-pick samples (AID 687020); type: functional, cell-based; conditions: Chlorocebus sabaeus
# cells [27] = experiment: cells
# Major prion protein = Major prion protein (Homo sapiens, UniProt P04156); type: functional, cell-based
# Galanin receptor type 3 = Galanin receptor type 3 (Homo sapiens, UniProt O60755); experiment: Fluorescence-based cell-based primary high throughput dose response assay to identify antagonists of the Galanin Receptor 3 (GalR3).; type: functional
# [28] = target: COUP transcription factor 2 (Homo sapiens, UniProt P24468); experiment: Luminescence-based cell-based high throughput dose response assay to identify inhibitors of COUP-TFII (NR2F2).; type: functional;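 also: HEK293 cells transiently cotransfected with COUP-TFII expression vector and reporter; luciferase reporter luminescence driven by COUP-TFII from the pX2-168 reporter plasmid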
# cells [29] = type: functional, cell-based; conditions: HEK-CNG
# T3 sequence (P49327 whole entry, the tested form may be a part): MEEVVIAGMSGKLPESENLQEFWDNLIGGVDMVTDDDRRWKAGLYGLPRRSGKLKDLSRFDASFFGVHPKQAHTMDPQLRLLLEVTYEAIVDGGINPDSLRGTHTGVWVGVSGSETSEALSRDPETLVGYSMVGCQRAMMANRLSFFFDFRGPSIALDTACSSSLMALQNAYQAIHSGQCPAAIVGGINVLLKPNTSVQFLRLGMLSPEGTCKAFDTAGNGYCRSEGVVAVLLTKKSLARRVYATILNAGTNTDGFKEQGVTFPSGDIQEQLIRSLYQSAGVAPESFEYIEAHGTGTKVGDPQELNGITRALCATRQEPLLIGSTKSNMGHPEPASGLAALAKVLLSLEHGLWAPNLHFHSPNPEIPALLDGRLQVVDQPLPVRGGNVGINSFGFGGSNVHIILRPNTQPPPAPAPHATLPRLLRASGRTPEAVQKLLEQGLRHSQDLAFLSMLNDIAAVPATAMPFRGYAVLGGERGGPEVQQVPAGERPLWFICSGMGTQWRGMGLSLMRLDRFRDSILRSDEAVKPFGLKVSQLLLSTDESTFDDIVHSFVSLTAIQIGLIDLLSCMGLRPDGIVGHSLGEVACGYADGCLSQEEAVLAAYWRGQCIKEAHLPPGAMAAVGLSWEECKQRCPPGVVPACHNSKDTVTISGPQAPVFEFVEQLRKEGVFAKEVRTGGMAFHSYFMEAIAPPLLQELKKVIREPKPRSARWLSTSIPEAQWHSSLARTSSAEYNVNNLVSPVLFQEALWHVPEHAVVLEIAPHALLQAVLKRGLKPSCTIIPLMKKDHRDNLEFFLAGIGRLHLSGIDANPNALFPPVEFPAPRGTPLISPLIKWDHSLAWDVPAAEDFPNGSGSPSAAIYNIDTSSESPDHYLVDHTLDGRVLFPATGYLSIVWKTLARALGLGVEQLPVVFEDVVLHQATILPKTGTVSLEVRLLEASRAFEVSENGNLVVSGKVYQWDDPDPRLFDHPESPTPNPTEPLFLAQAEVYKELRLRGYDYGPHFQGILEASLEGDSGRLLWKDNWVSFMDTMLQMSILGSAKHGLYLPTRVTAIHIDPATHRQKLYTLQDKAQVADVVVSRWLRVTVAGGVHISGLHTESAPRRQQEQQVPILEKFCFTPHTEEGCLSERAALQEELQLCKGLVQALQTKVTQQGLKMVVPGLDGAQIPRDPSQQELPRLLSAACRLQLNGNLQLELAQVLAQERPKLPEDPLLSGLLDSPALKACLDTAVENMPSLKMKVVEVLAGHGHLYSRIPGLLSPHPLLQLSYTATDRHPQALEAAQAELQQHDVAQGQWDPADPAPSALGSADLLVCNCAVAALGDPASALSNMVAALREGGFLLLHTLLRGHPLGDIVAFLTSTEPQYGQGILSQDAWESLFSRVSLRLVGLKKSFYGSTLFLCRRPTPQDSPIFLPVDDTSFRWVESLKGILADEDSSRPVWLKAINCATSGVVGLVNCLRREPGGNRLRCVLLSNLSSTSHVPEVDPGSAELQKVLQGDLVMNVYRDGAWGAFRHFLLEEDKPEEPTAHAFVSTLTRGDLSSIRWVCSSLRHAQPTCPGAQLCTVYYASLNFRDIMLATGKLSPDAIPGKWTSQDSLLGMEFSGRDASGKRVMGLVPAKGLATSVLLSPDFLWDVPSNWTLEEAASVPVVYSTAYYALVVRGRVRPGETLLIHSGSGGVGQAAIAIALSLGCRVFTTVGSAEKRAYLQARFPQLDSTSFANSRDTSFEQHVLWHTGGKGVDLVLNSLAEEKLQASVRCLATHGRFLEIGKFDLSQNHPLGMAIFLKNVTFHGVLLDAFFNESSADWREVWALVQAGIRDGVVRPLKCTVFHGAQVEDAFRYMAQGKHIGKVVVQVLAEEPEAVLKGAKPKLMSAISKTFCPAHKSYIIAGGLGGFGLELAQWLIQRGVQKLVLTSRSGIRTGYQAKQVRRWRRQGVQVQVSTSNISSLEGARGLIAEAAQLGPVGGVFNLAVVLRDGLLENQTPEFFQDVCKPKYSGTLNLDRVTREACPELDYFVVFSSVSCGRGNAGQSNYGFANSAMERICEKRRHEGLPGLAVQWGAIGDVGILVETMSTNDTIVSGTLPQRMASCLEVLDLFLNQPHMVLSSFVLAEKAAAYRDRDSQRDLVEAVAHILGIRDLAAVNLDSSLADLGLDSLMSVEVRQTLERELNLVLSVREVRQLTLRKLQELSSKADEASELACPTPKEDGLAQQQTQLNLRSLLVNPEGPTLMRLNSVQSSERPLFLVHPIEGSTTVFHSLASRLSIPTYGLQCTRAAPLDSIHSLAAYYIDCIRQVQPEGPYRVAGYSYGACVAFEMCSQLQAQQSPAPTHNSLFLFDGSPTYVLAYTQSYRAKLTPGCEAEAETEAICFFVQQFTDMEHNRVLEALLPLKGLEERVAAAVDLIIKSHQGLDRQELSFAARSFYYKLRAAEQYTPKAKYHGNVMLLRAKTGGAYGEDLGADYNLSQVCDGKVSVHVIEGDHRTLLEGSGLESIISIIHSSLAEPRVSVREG
# T2 sequence (Q9P0U3 whole entry, the tested form may be a part): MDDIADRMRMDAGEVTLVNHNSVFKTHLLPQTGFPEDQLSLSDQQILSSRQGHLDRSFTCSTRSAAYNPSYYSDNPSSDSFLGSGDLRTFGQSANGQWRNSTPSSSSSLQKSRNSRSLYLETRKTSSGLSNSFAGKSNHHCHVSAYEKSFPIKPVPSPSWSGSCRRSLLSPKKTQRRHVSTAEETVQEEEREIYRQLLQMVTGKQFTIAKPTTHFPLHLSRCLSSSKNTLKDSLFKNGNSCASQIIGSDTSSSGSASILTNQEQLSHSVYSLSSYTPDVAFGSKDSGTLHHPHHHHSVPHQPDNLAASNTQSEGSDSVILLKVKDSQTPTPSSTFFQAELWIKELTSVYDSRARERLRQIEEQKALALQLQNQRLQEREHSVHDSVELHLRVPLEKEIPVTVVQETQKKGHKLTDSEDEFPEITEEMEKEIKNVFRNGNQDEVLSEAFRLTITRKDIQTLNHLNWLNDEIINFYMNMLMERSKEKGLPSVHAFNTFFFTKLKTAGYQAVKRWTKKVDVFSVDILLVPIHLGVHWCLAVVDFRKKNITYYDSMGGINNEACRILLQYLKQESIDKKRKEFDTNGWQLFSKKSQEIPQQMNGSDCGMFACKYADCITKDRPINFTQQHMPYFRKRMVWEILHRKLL
# Beta-lactamase (Salmonella choleraesuis (strain SC-B67), UniProt Q5J463), sequence (Q5J463 whole entry): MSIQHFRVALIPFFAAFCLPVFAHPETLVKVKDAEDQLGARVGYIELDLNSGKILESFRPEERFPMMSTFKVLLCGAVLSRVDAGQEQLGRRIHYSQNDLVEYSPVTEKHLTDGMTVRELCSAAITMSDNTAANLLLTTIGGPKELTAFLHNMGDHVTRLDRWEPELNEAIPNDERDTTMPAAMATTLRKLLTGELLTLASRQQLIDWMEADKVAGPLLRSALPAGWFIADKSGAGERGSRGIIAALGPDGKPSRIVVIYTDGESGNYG
# 5-hydroxytryptamine receptor 2A, sequence (P35363 whole entry): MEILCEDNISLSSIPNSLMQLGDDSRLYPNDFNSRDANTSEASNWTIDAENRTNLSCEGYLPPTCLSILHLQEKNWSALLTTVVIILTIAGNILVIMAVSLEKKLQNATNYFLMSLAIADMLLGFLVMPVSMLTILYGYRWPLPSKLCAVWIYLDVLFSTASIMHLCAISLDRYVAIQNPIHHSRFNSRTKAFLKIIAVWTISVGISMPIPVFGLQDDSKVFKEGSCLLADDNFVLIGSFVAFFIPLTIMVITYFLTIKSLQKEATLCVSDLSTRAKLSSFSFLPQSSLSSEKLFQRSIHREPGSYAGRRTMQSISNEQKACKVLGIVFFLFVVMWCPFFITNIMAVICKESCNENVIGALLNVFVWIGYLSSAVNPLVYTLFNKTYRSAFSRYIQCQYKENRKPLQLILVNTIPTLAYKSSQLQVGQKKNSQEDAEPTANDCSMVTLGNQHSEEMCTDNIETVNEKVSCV
# SUMO-activating enzyme, sequence (Q9UBE0 whole entry): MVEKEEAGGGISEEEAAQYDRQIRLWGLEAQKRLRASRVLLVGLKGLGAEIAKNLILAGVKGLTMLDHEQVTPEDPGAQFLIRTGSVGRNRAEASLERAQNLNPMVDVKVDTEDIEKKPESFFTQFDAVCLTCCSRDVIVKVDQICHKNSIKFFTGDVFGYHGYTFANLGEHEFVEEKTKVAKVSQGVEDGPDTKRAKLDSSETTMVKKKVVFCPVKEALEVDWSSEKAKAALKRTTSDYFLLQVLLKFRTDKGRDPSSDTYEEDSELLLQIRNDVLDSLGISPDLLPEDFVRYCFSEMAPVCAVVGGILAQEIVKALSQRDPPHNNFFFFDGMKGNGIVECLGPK
# SUMO-activating enzyme, sequence (Q9UBT2 whole entry): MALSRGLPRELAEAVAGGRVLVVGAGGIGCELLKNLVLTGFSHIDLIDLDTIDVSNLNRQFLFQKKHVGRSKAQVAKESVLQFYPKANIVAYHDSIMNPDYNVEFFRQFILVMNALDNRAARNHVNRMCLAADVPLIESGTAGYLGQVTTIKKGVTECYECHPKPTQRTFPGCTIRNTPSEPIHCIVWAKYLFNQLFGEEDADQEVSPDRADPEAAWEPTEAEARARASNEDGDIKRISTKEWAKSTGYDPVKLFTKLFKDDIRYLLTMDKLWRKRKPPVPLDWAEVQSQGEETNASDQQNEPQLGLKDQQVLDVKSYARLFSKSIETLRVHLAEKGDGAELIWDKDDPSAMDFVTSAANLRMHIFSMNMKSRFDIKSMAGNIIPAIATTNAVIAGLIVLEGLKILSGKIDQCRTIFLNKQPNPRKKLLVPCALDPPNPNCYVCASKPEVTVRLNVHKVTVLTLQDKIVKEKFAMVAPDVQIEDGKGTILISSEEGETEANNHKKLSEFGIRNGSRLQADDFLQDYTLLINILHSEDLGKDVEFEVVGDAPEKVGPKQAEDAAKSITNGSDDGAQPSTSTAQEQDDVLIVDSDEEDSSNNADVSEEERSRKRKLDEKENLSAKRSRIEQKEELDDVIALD
structure (smiles),measurement,setting,value
CSc1ccc(/C=C/C(=O)N2CCN(c3ccccn3)CC2)cc1,EC50,[1],> 53 µM (inactive)
same,IC50,[2],> 47.1 µM (inactive)
same,IC50,Beta-galactosidase,> 80 µM (inactive)
Cn1cccc1/C=N/NC(=O)c1sc2cc(Cl)ccc2c1Cl,IC50,SUMO-activating enzyme,> 100 µM (inactive)
same,AC50,cells [3],43.7 µM (active)
Cc1coc(NC(=O)CSc2nc(-c3ccncc3)cc(C(F)(F)F)c2C#N)n1,IC50,[4],35.9 µM (inactive)
same,IC50,Fatty acid synthase [5],18.5 µM (active)
same,IC50,[6],25.4 µM (inactive)
same,IC50,Fatty acid synthase [7],14.8 µM (active)
O=c1c2ccccc2oc2cc(-c3ccc(CN4CCOCC4)cc3)ccc12,AC50,[8],26 µM (active)
N#CC(C#N)=C1C=C2C=C(N3CCCCC3)CCC2CC1 (configuration not stated),IC50,Beta-lactamase [9],1.23 µM (active)
same,IC50,Beta-lactamase [10],2.51 µM (active)
Cc1ccc2c(C)c(C(=O)Nc3c(C)n(C)n(-c4ccccc4)c3=O)oc2c1C,EC50,Mu-type opioid receptor,92.5 µM (inactive)
same,EC50,[11],18.9 µM (inactive)
Cc1cc([N+](=O)[O-])c(C)cc1-c1ccc(/C=N/NC(=O)Cn2nnnc2N)o1,IC50,[12],17.8 µM (inactive)
Cc1ccc(C(=O)NCCC(=O)N[C@@H]2CCCc3ccccc32)cc1,AC50,[13],> 52 µM (inactive)
same,AC50,[14],6.22 µM (active)
CCCC(=O)Nc1ccc(-c2csc(N/N=C\c3ccncc3)n2)cc1,IC50,[15],> 29.9 µM (inactive)
same,EC50,[16],> 29.9 µM (inactive)
same,EC50,[17],> 29.9 µM (inactive)
same,IC50,[18],9.3 µM (active)
COc1ccc(C#Cc2ccc(C(=O)N3CCCC(=O)C3)cc2)cc1,IC50,[19],2.71 µM
CC(C)(C)c1cc(=O)n(-c2ccccc2)[nH]1,IC50,[20],19.1 µM (active)
same,IC50,[21],> 50 µM (not active)
same,IC50,[22],7.95 µM (active)
CCN1CCN(C(c2nc3ncc([N+](=O)[O-])cc3c(=O)n2-c2ccccc2)C(c2nc3ncc([N+](=O)[O-])cc3c(=O)n2-c2ccccc2)N2CCN(CC)CC2)CC1 (configuration not stated),IC50,[23],6.57 µM (active)
O=C(O)c1csc(N/N=C/c2ccc(Br)cc2)n1,IC50,[24],47.3 µM (inactive)
same,EC50,[25],> 260 µM (inactive)
same,IC50,[26],> 80 µM (inactive)
same,EC50,Mucolipin-3,> 29.9 µM (not active)
same,EC50,Ion channel NompC,> 29.9 µM (not active)
CC(C)(CN1CCN(Cc2ccccc2)CC1)NS(=O)(=O)c1ccc(Cl)cc1,AC50,Vero,33.7 µM (active)
O=C(O)CSc1ncnc2scc(-c3ccccc3)c12,IC50,cells [27],> 138 µM (inactive)
same,IC50,Major prion protein,5.04 µM (active)
OC[C@@H]1CN(Cc2ccc(-c3ccccc3)cc2)C[C@H](n2cnc3c(NC4CCCC4)ncnc32)O1,IC50,Galanin receptor type 3,0.349 µM (active)
same,IC50,[28],6.28 µM (active)
same,EC50,cells [29],> 29.9 µM (inactive)
